Data: article PMC8162746 (Cancer chemotherapy and pharmacology, 2021)
“And” between values parts separate entries of the source, which are not always exact repeats. Equal values may be shown once. “Also recorded” adds a separate entry of the source. Read-outs that look alike come from different tables or passages of the source.

Experiments:
[1] = test system: patients with primary CNS and advanced solid tumors; assay: Phase I dose-escalation trial of oral AR-42: safety and tolerability; type: in vivo
[2] = test system: primary CNS and advanced solid tumors; assay: Phase I trial: response evaluation; type: in vivo, human
[3] = Plasma pharmacokinetics, LC-MS/MS, non-compartmental analysis; type: in vivo, human; conditions: for AUC / Cmax: oral; for AUC: Median AUC; for Cmax: Median Cmax
[4] = cited from earlier work
[5] = test system: Burkitt lymphoma mouse models; conditions: cited from earlier work
[6] = test system: xenograft and allograft schwannoma; conditions: cited from earlier work
[7] = test system: schwannoma and meningioma cell lines; conditions: cited from earlier work
[8] = test system: patients with multiple myeloma and T- and B-cell lymphomas; conditions: cited from earlier work
[9] = 17 patients evaluable for toxicity
[10] = human, plasma, patients without grade 3 or 4 toxicity

## CC(C)[C@H](C(=O)Nc1ccc(C(=O)NO)cc1)c1ccccc1 [AR-42]
[1]; 17 patients
  Treatment-related deaths: no treatment-related deaths
[1]; [9]
  Grade 3 TRAE anemia: 2 n
  Grade 3 TRAE anorexia: 1 n
  Grade 3 TRAE hematuria: 1 n
  Grade 3 TRAE hypophosphatemia: 3 n
  Grade 3 TRAE lymphopenia: 3 n
  Grade 3 TRAE nausea: 2 n
  Grade 3 TRAE thrombocytopenia: 5 n
  Grade 3 TRAE venous thromboembolism: 1 n
  Grade 3 TRAE weight loss: 1 n
[1]; 17 patients, event at 30 mg
  Cardiac toxicity observed (QTc prolongation): one patient with a grade 1 QTc prolongation; also recorded: one patient who experienced a grade 1 QTc prolongation
[1]; N=17, 30-80 mg
  Anemia, treatment-related adverse event, All grades: 10 n (%) and 10 (58.8%) n (%)
  Anemia, treatment-related adverse event, Grade 1–2: 8 (47.1%) n (%)
  Anemia, treatment-related adverse event, Grade 3–4: 2 (11.8%) n (%)
  Anorexia, treatment-related adverse event, All grades: 5 (29.4%) n (%)
  Anorexia, treatment-related adverse event, Grade 1–2: 4 (23.5%) n (%)
  Anorexia, treatment-related adverse event, Grade 3–4: 1 (5.9%) n (%)
  Constipation, treatment-related adverse event, All grades: 4 (23.5%) n (%)
  Constipation, treatment-related adverse event, Grade 1–2: 4 (23.5%) n (%)
  Cough, treatment-related adverse event, All grades: 2 (11.8%) n (%)
  Cough, treatment-related adverse event, Grade 1–2: 2 (11.8%) n (%)
  Dehydration, treatment-related adverse event, All grades: 2 (11.8%) n (%)
  Dehydration, treatment-related adverse event, Grade 1–2: 2 (11.8%) n (%)
  Diarrhea, treatment-related adverse event, All grades: 6 n (%) and 6 (35.3%) n (%)
  Diarrhea, treatment-related adverse event, Grade 1–2: 6 (35.3%) n (%)
  Dizziness, treatment-related adverse event, All grades: 4 (23.5%) n (%)
  Dizziness, treatment-related adverse event, Grade 1–2: 4 (23.5%) n (%)
  Dry mouth, treatment-related adverse event, All grades: 3 (17.6%) n (%)
  Dry mouth, treatment-related adverse event, Grade 1–2: 3 (17.6%) n (%)
  Dysgeusia, treatment-related adverse event, All grades: 3 (17.6%) n (%)
  Dysgeusia, treatment-related adverse event, Grade 1–2: 3 (17.6%) n (%)
  Elevated alkaline phosphatase, treatment-related adverse event, All grades: 4 (23.5%) n (%)
  Elevated alkaline phosphatase, treatment-related adverse event, Grade 1–2: 4 (23.5%) n (%)
  Elevated creatinine, treatment-related adverse event, All grades: 8 n (%) and 8 (47.1%) n (%)
  Elevated creatinine, treatment-related adverse event, Grade 1–2: 8 (47.1%) n (%)
  Fatigue, treatment-related adverse event, All grades: 11 (64.7%) n (%)
  Fatigue, treatment-related adverse event, Grade 1–2: 11 (64.7%) n (%)
  Headache, treatment-related adverse event, All grades: 3 (17.6%) n (%)
  Headache, treatment-related adverse event, Grade 1–2: 3 (17.6%) n (%)
  Hematuria, treatment-related adverse event, All grades: 1 (5.9%) n (%)
  Hematuria, treatment-related adverse event, Grade 3–4: 1 (5.9%) n (%)
  Hypermagnesemia, treatment-related adverse event, All grades: 2 (11.8%) n (%)
  Hypermagnesemia, treatment-related adverse event, Grade 1–2: 2 (11.8%) n (%)
  Hypernatremia, treatment-related adverse event, All grades: 2 (11.8%) n (%)
  Hypernatremia, treatment-related adverse event, Grade 1–2: 2 (11.8%) n (%)
  Hypersomnia, treatment-related adverse event, All grades: 2 (11.8%) n (%)
  Hypersomnia, treatment-related adverse event, Grade 1–2: 2 (11.8%) n (%)
  Hypoalbuminemia, treatment-related adverse event, All grades: 5 (29.4%) n (%)
  Hypoalbuminemia, treatment-related adverse event, Grade 1–2: 5 (29.4%) n (%)
  Hyponatremia, treatment-related adverse event, All grades: 3 (17.6%) n (%)
  Hyponatremia, treatment-related adverse event, Grade 1–2: 3 (17.6%) n (%)
  Hypophosphatemia, treatment-related adverse event, All grades: 7 n (%) and 7 (41.2%) n (%)
  Hypophosphatemia, treatment-related adverse event, Grade 1–2: 4 (23.5%) n (%)
  Hypophosphatemia, treatment-related adverse event, Grade 3–4: 3 (17.6%) n (%)
  Impaired concentration, treatment-related adverse event, All grades: 3 (17.6%) n (%)
  Impaired concentration, treatment-related adverse event, Grade 1–2: 3 (17.6%) n (%)
  Leukopenia, treatment-related adverse event, All grades: 8 n (%) and 8 (47.1%) n (%)
  Leukopenia, treatment-related adverse event, Grade 1–2: 8 (47.1%) n (%)
  Limb edema, treatment-related adverse event, All grades: 2 (11.8%) n (%)
  Limb edema, treatment-related adverse event, Grade 1–2: 2 (11.8%) n (%)
  Lymphopenia, treatment-related adverse event, All grades: 7 n (%) and 7 (41.2%) n (%)
  Lymphopenia, treatment-related adverse event, Grade 1–2: 4 (23.5%) n (%)
  Lymphopenia, treatment-related adverse event, Grade 3–4: 3 (17.6%) n (%)
  Myalgia, treatment-related adverse event, All grades: 4 (23.5%) n (%)
  Myalgia, treatment-related adverse event, Grade 1–2: 4 (23.5%) n (%)
  Nausea, treatment-related adverse event, All grades: 10 n (%) and 10 (58.8%) n (%)
  Nausea, treatment-related adverse event, Grade 1–2: 8 (47.1%) n (%)
  Nausea, treatment-related adverse event, Grade 3–4: 2 (11.8%) n (%)
  Neutropenia, treatment-related adverse event, All grades: 7 n (%) and 7 (41.2%) n (%)
  Neutropenia, treatment-related adverse event, Grade 1–2: 7 (41.2%) n (%)
  Psychiatric disorder, treatment-related adverse event, All grades: 1 (5.9%) n (%)
  Psychiatric disorder, treatment-related adverse event, Grade 3–4: 1 (5.9%) n (%)
  Thrombocytopenia, treatment-related adverse event, All grades: 13 (76.5%) n (%)
  Thrombocytopenia, treatment-related adverse event, Grade 1–2: 8 (47.1%) n (%)
  Thrombocytopenia, treatment-related adverse event, Grade 3–4: 5 (29.4%) n (%)
  Thromboembolic event, treatment-related adverse event, All grades: 1 (5.9%) n (%)
  Thromboembolic event, treatment-related adverse event, Grade 3–4: 1 (5.9%) n (%)
  Vomiting, treatment-related adverse event, All grades: 4 (23.5%) n (%)
  Vomiting, treatment-related adverse event, Grade 1–2: 4 (23.5%) n (%)
  Weight loss, treatment-related adverse event, All grades: 3 (17.6%) n (%)
  Weight loss, treatment-related adverse event, Grade 1–2: 2 (11.8%) n (%)
  Weight loss, treatment-related adverse event, Grade 3–4: 1 (5.9%) n (%)
[1]; at the 80 mg dose
  Only grade 4 TRAE: psychosis
[1]; dose level 1A, 30 mg
  No. of dose delays: 0
  No. of dose reductions: 0
[1]; dose level 1B, 60 mg
  Description of DLT: Thrombocytopenia (grade 3)
  No. of dose delays: 4
  No. of dose reductions: 2
[1]; dose level 1B, 60 mg, 7 patients
  No. of patients with a DLT: 1
[1]; dose level 2A, 60 mg
  No. of dose delays: 0
  No. of dose reductions: 0
[1]; dose level 2A, 60 mg, 2 patients
  No. of patients with a DLT: 0
[1]; dose level 2B, 80 mg
  No. of dose delays: 0
  No. of dose reductions: 0
[1]; dose level 2B, 80 mg, 2 patients
  No. of patients with a DLT: 1
[1]; during cycle one, N=17
  Patients who developed a grade 4 toxicity: 5.9%
  Patients who developed at most a grade 1 toxicity: 23.5%
  Patients who developed at most a grade 2 toxicity: 29.4%
  Patients who developed at most a grade 3 toxicity: 29.4%
  Patients who experienced no toxicities: 11.8%
[1]; expansion cohort, 60 mg
  No. of dose delays: 0
  No. of dose reductions: 0
[1]; in vivo
  Grade 4 thrombocytopenia: no grade 4 thrombocytopenia
[1]; oral, three times weekly, three weeks of a 28-day cycle
  Recommended phase II dose (RP2D): 60 mg
[1]; with thrombocytopenia
  Clinically significant bleeding events: no clinically significant bleeding events
[2]; 30 mg
  Stable disease: 1 of 3
[2]; 60 mg
  Stable disease: 7 of 11
[2]; 1 of 5 patients with NF2 or meningioma
  Follow up without progression: > 27 months
[2]; 15 evaluable patients, 95% CI 26.6–78.7
  Best response stable disease, proportion of patients: 53%
[2]; all evaluable patients
  Stable disease: 8 of 15
[2]; evaluable NF2 or meningioma (n=5), 60 mg, 95% CI 1.9-not reached
  Median PFS: 9.1 months
[2]; non-CNS solid tumors (n=10), 95% CI 0.1–5.0
  Median PFS: 1.7 months
[2]; overall cohort, 95% CI 1.2–9.1
  Median PFS: 3.6 months
[3]; 3 times weekly for three weeks of a four-week cycle
  Accumulation: did not accumulate
[3]; cycle 1
  Cmax, AUC0–24 and AUC0–∞ between Day 1 and Day 19: remained consistent
[3]; human, plasma, patients with a grade 3 or 4 toxicity during cycle 1 and 2, p=0.036
  AUC: 16.4 µM·h
[3]; [10]
  AUC: 11.3 µM·h
  Cmax: 1040 nM
[3]; human, plasma, patients with a grade 3 or 4 toxicity during cycle 1 and 2, p=0.0016
  Cmax: 1540 nM
[3]; human, plasma, po
  half-life: 8 to 13 h
[3]; only two patients at 80 mg
  AUC0–24 and AUC0–∞ higher in 80 mg dose group compared to 60 mg dose group: roughly 50%
[3]; patients with a grade 3 or 4 toxicity during cycle 1 and 2, p=0.0745
  Median CL/F: 10.48 L/h
[3]; patients without grade 3 or 4 toxicity
  Median CL/F: 15.8 L/h
[4]; mouse model
  Blood brain barrier penetration: crossed the blood brain barrier
[4]; rodents
  Blood brain barrier penetration: penetrates the blood brain barrier
[5]
  Activity compared with vorinostat: superior to that of vorinostat
[6]
  Schwannoma growth: suppressed peripherally implanted xenograft and allograft schwannoma growth
[7]; cell cycle arrest at G2 and apoptosis
  Proliferation of schwannoma and meningioma cell lines: suppressed proliferation
[7]
  AKT phosphorylation: decreased AKT phosphorylation
[8]; patients with grade 1 QTc prolongation
  Mean QTc change: 27.4 ms
[8]; phase I study in hematologic malignancies
  Grade 1 QTc prolongation: 8 of 27
[8]; phase I trial in hematologic malignancies
  Thrombocytopenia: 16 of 27
[8]; three times weekly for three weeks of a 28-day cycle
  Maximum tolerated dose (MTD): 40 mg
